What was measured:
HIV-IIIb = test: Test A: Antiviral assay in MT4 cells; type: cell-based, HIV-1; conditions: MT-4 cells infected with HIV-IIIb, 5 days, CellTiter-Glo; for % inhibition at 2 μM: percent inhibition of virus-induced cell killing, from dose response curve at 2 uM drug; for inhibition at 2 µM: Human immunodeficiency virus 1, IIIB, MT4, 120 h, read-out: % inhibition at 2 μM, percent inhibition of virus-induced cell killing, from dose response curve at 2 uM drug
MT-4 cells = test: in vitro; conditions: uninfected MT-4 cells, same protocol as Test A, 5 days, CellTiter-Glo
Method in brief: (§1)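 Cytoprotection read-out: CellTiter-Glo chemiluminescence after 5 days at 37 °C of HIV-IIIb-infected MT-4 cells (m.o.i. 0.003) with compound in 10-point 3-fold dilutions, quadruplicate, 10% FBS. Cytotoxicity (CC50) measured identically without virus.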

in vitro = conditions: human, uninfected MT-4 cells, CC50 (nM), same protocol as Test A, CellTiter-Glo
Method in brief: as §1

Row | SMILES | % inhibition at 2 μM (HIV-IIIb) | CC50 (MT-4 cells) | inhibition at 2 µM (HIV-IIIb) | CC50 at 5 days (in vitro)
1 | O=C(N[C@@H](Cc1cc(F)cc(F)c1)c1ncccc1-c1ccc(Cl)cc1)C(c1c[nH]c2ccc(F)cc12)C(F)(F)F (single isomer, unassigned) [Example 36G] | 0% | 6.93 µM | – | –
2 | NC(=O)c1cc(-c2cccnc2[C@H](Cc2cc(F)cc(F)c2)NC(=O)Cn2nc(C(F)(F)F)c3c2[C@H]2C[C@H]2C3)ccc1F (single isomer, unassigned) [Example 186] | 80% | 16.8 µM | – | –
3 | NC(=O)c1cc(-c2cccnc2[C@H](Cc2cc(F)cc(F)c2)NC(=O)Cn2nc(C(F)F)c3c2CC2CC32)ccc1F (single isomer, unassigned) [Example 249] | 100% | 23.4 µM | – | –
4 | O=C(Cn1nc(C(F)F)c2c1C1CC1CC2)NC(Cc1cc(F)cc(F)c1)c1ncncc1-c1cnc2[nH]ccc2c1 (single isomer, unassigned) [Example 347] | 1% | 19.4 µM | – | –
5 | O=C(Cn1nc(C(F)F)c2c1C1CC1CC2)NC(Cc1cc(F)cc(F)c1)c1ncncc1-c1cnc2[nH]ccc2c1 (single isomer, unassigned) [Example 348] | 103% | 14.2 µM | – | –
6 | CCC(C(=O)N[C@@H](Cc1cc(F)cc(F)c1)c1ncccc1-c1ccc(F)c(C(N)=O)c1)n1nc(C(F)F)cc1C(F)F (single isomer, unassigned) [Example 484] | 25% | 27.4 µM | – | –
7 | CCCCC(C(=O)N[C@@H](Cc1cc(F)cc(F)c1)c1ncccc1-c1ccc(F)c(C(N)=O)c1)n1ccc(C(F)(F)F)n1 (single isomer, unassigned) [Example 488] | 8% | 12.4 µM | – | –
8 | CCC(C(=O)N[C@@H](Cc1cc(F)cc(F)c1)c1ncccc1-c1ccc(F)c(C(N)=O)c1)n1nc(C(F)(F)F)c2c1CCCC2 (single isomer, unassigned) [Example 531] | 98% | 7.4 µM | – | –
9 | CCC(C(=O)N[C@@H](Cc1cc(F)cc(F)c1)c1ncccc1-c1ccc(F)c(C(N)=O)c1)n1nc(C(F)(F)F)c2c1CCCC2 (single isomer, unassigned) [Example 532] | 9% | 12.2 µM | – | –
10 | NC(=O)c1cc(-c2cccnc2[C@H](Cc2cc(F)cc(F)c2)NC(=O)C(c2ccccc2)C2CCCC2)ccc1F (single isomer, unassigned) [Example 552] | 8% | 11 µM | – | –
11 | CCC(C(=O)N[C@@H](Cc1cc(F)cc(F)c1)c1ncccc1-c1ccc(F)c(C(N)=O)c1)n1cc(C(F)(F)F)cn1 (single isomer, unassigned) [Example 566] | 3% | 23.7 µM | – | –
12 | Cc1cc2ncn(C(CC(F)(F)F)C(=O)N[C@@H](Cc3cc(F)cc(F)c3)c3ncccc3-c3ccc(F)c(C(N)=O)c3)c2cc1C (single isomer, unassigned) [Example 571] | 2% | 34.8 µM | – | –
13 | CCC(C(=O)N[C@@H](Cc1cc(F)cc(F)c1)c1ncccc1-c1ccc(F)c(C(N)=O)c1)n1ccc(C(F)(F)F)n1 (single isomer, unassigned) [Example 573] | 18% | 30.1 µM | – | –
14 | CC(C)CC(C(=O)N[C@@H](Cc1cc(F)cc(F)c1)c1ncccc1-c1ccc(F)c(C(N)=O)c1)n1ccc(C(F)(F)F)n1 (single isomer, unassigned) [Example 582] | 5% | 14.4 µM | – | –
15 | NS(=O)(=O)c1cc(-c2cccnc2[C@H](Cc2cc(F)cc(F)c2)NC(=O)Cc2c[nH]c3ccc(F)cc23)ccc1F [Example 580F, (S)—N-(2-(3,5-difluorophenyl)-1-(3-(4-fluoro-3-sulfamoylphenyl)pyridin-2-yl)ethyl)-2-(5-fluoro-1H-indol-3-yl)acetamide] | – | – | 95% | 32600 nM
16 | Cc1cc2cn(CC(=O)N[C@@H](Cc3cc(F)cc(F)c3)c3ncccc3-c3ccc(F)c(C(N)=O)c3)nc2cc1C [Example 583, (S)-5-(2-(2-(3,5-difluorophenyl)-1-(2-(5,6-dimethyl-2H-indazol-2-yl)acetamido)ethyl)pyridin-3-yl)-2-fluorobenzamide] | – | – | 28% | 23200 nM

Row | SMILES | % inhibition at 2 μM (HIV-IIIb) | CC50 (MT-4 cells) | inhibition at 2 µM (HIV-IIIb) | CC50 at 5 days (in vitro)
17 | NCc1ccc2c(CC(=O)N[C@@H](Cc3cc(F)cc(F)c3)c3ncccc3-c3cccc(C(N)=O)c3)c[nH]c2c1 [Example 584, (S)-3-(2-(1-(2-(6-(aminomethyl)-1H-indol-3-yl)acetamido)-2-(3,5-difluorophenyl)ethyl)pyridin-3-yl)benzamide] | – | – | 93% | 7250 nM
18 | NC(=O)c1cc(-c2cccnc2[C@H](Cc2cc(F)cc(F)c2)NC(=O)Cn2ccc3cc(Cl)ccc32)ccc1F [Example 585, (S)-5-(2-(1-(2-(5-chloro-1H-indol-1-yl)acetamido)-2-(3,5-difluorophenyl)ethyl)pyridin-3-yl)-2-fluorobenzamide] | – | – | 58% | 13700 nM
19 | CCC(C(=O)N[C@@H](Cc1cc(F)cc(F)c1)c1ncccc1-c1ccc(F)c(C(N)=O)c1)n1cnc2cc(C)c(C)cc21 (stereo partly drawn) [Example 587C, 5-(2-((1S)-2-(3,5-difluorophenyl)-1-(2-(5,6-dimethyl-1H-benzo[d]imidazol-1-yl)butanamido)ethyl)pyridin-3-yl)-2-fluorobenzamide] | – | – | 93% | 23000 nM
20 | NC(=O)c1cc(-c2cccnc2[C@H](Cc2cc(F)cc(F)c2)NC(=O)Cn2ncc3ccc(O)cc32)ccc1F [Example 588, (S)-5-(2-(2-(3,5-difluorophenyl)-1-(2-(6-hydroxy-1H-indazol-1-yl)acetamido)ethyl)pyridin-3-yl)-2-fluorobenzamide] | – | – | 2% | 21500 nM
21 | NC(=O)c1cc(-c2cccnc2[C@H](Cc2cc(F)cc(F)c2)NC(=O)Cn2ccc3ccc(C(F)(F)F)cc32)ccc1F [Example 591, (S)-5-(2-(2-(3,5-difluorophenyl)-1-(2-(6-(trifluoromethyl)-1H-indol-1-yl)acetamido)ethyl)pyridin-3-yl)-2-fluorobenzamide] | – | – | 15% | 14200 nM
22 | NC(=O)c1cc(-c2cccnc2[C@H](Cc2cc(F)cc(F)c2)NC(=O)Cc2ccccc2)ccc1F [Example 592] | – | – | 8% | > 53200 nM
23 | Cc1cc2[nH]cc(CC(=O)N[C@@H](Cc3cc(F)cc(F)c3)c3ncccc3-c3cccc(C(N)=O)c3)c2cc1O [Example 593, (S)-3-(2-(2-(3,5-difluorophenyl)-1-(2-(5-hydroxy-6-methyl-1H-indol-3-yl)acetamido)ethyl)pyridin-3-yl)benzamide] | – | – | 52% | > 53000 nM
24 | NC(=O)c1cccc(-c2cccnc2[C@H](Cc2cc(F)cc(F)c2)NC(=O)Cn2ccc3cc(F)c(F)cc32)c1 [Example 594B, (S)-3-(2-(1-(2-(5,6-difluoro-1H-indol-1-yl)acetamido)-2-(3,5-difluorophenyl)ethyl)pyridin-3-yl)benzamide] | – | – | 12% | 13400 nM
25 | O=C(Cn1nc(C(F)(F)F)c2c1CC1CC21)N[C@@H](Cc1cc(F)cc(F)c1)c1ncccc1-c1cnc2[nH]ccc2c1 (stereo partly drawn) [Example 595, N—((S)-1-(3-(1H-pyrrolo[2,3-b]pyridin-5-yl)pyridin-2-yl)-2-(3,5-difluorophenyl)ethyl)-2-(3-(trifluoromethyl)-3b,4,4a,5-tetrahydro-1H-cyclopropa[3,4]cyclopenta[1,2-c]pyrazol-1-yl)acetamide] | – | – | 99% | 12700 nM
26 | NC(=O)c1cccc(-c2cccnc2[C@H](Cc2cc(F)cc(F)c2)NC(=O)Cc2c[nH]c3ccc(C(F)(F)F)cc23)c1 [Example 596, (S)-3-(2-(2-(3,5-difluorophenyl)-1-(2-(5-(trifluoromethyl)-1H-indol-3-yl)acetamido)ethyl)pyridin-3-yl)benzamide] | – | – | 96% | 10900 nM
27 | Cc1[nH]c2ccc(F)cc2c1CC(=O)N[C@@H](Cc1cc(F)cc(F)c1)c1ncccc1-c1ccc(Cl)cc1 [Example 597, (S)—N-(1-(3-(4-chlorophenyl)pyridin-2-yl)-2-(3,5-difluorophenyl)ethyl)-2-(5-fluoro-2-methyl-1H-indol-3-yl)acetamide] | – | – | 89% | 8650 nM
28 | COC1CN(C(=O)c2cc(C(C)C)nn2CC(=O)N[C@@H](Cc2cc(F)cc(F)c2)c2ncccc2-c2ccc(F)c(C(N)=O)c2)C1 [Example 598, (S)-5-(2-(2-(3,5-difluorophenyl)-1-(2-(3-isopropyl-5-(3-methoxyazetidine-1-carbonyl)-1H-pyrazol-1-yl)acetamido)ethyl)pyridin-3-yl)-2-fluorobenzamide] | – | – | 3% | > 53200 nM
29 | NC(=O)c1cc(-c2cccnc2[C@H](Cc2cc(F)cc(F)c2)NC(=O)Cn2c(C(F)(F)F)cc3ccccc32)ccc1F [Example 599, (S)-5-(2-(2-(3,5-difluorophenyl)-1-(2-(2-(trifluoromethyl)-1H-indol-1-yl)acetamido)ethyl)pyridin-3-yl)-2-fluorobenzamide] | – | – | 2% | 31600 nM
30 | Cc1nc2n(CC(=O)N[C@@H](Cc3cc(F)cc(F)c3)c3ncccc3-c3ccc(F)c(C(N)=O)c3)c3ccccc3n2n1 [Example 600, (S)-5-(2-(2-(3,5-difluorophenyl)-1-(2-(2-methyl-4H-benzo[4,5]imidazo[1,2-b][1,2,4]triazol-4-yl)acetamido)ethyl)pyridin-3-yl)-2-fluorobenzamide] | – | – | 9% | > 53200 nM
31 | COc1cccc(CC(=O)N[C@@H](Cc2cc(F)cc(F)c2)c2ncccc2-c2cccc(C(N)=O)c2)c1 [Example 601, (S)-3-(2-(2-(3,5-difluorophenyl)-1-(2-(3-methoxyphenyl)acetamido)ethyl)pyridin-3-yl)benzamide] | – | – | 22% | 41900 nM

— patent US9540343B2 (Gilead Sciences, Inc., priority 2011, dated 2017)
